Laboratory results as given in ChEMBL document CHEMBL5365442, “A novel chalcone derivative exerts anticancer effects by promoting apoptotic cell death of human pancreatic cancer cells” (Bioorg Med Chem, 2023).
Blank lines part the entries; values can stand above or below the compound they belong to. Activity calls are given as the source filed them. The calls are words filed in the database; no cut-off is given here.

Tests used:
[1] = 1-octanol/PBS partition coefficient, logD of the compound at pH 7.4 by HPLC analysis; assay type: physicochemical
[2] = tested on: BXPC-3; experiment: Antiproliferative activity against human BXPC-3 cells assessed as inhibition of cell growth incubated for 48 hrs by WST-1 assay; assay type: functional, cell-based; settings: BXPC-3, 48 h
[3] = tested on: BXPC-3; experiment: Antiproliferative activity against human BXPC-3 cells assessed as inhibition of cell growth incubated for 24 hrs by WST-1 assay; assay type: functional, cell-based; settings: BXPC-3, 24 h
[4] = tested on: BXPC-3; experiment: Antiproliferative activity against human BXPC-3 cells assessed as inhibition of cell growth incubated for 72 hrs by WST-1 assay; assay type: functional, cell-based; settings: BXPC-3, 72 h
[5] = tested on: BXPC-3; experiment: Induction of apoptosis in human BXPC-3 cells assessed as decrease in number of anti-Ki67 cells at 30 uM incubated for 24 hrs by anti-Ki67 staining based confocal microscopic analysis; assay type: functional, cell-based
[6] = tested on: BXPC-3; experiment: Induction of apoptosis in human BXPC-3 cells assessed as increase in cleaved caspase 3 level at 10 to 30 uM incubated for 24 hrs by Western blot analysis; assay type: functional, cell-based; settings: dose 10-30 µM
[7] = tested on: BXPC-3; experiment: Induction of apoptosis in human BXPC-3 cells assessed as increase in BAX/Bcl-2 mRNA expression ratio at 30 uM incubated for 24 hrs by RT-PCR analysis relative to control; assay type: functional
[8] = tested on: BXPC-3; experiment: Induction of apoptosis in human BXPC-3 cells assessed as porous appearance at 30 uM incubated for 24 hrs by SRS microspectroscopic analysis; assay type: functional, cell-based
[9] = tested on: BXPC-3; experiment: Induction of apoptosis in human BXPC-3 cells assessed as enlargement of cells at 30 uM incubated for 24 hrs by SRS microspectroscopic analysis; assay type: functional, cell-based
[10] = tested on: BXPC-3; experiment: Induction of apoptosis in human BXPC-3 cells assessed as nuclear condensation at 30 uM incubated for 24 hrs by Hoechst staining based confocal microscopic analysis; assay type: functional, cell-based
[11] = Downregulation of phosphorylated ERK protein expression in human BXPC-3 cells at 10 to 30 uM incubated for 24 hrs by Western blot analysis relative to control; assay type: functional; settings: dose 10-30 µM
[12] = Upregulation of phosphorylated p38 protein expression in human BXPC-3 cells at 10 to 30 uM incubated for 24 hrs by Western blot analysis relative to control; assay type: functional; settings: dose 10-30 µM
[13] = tested on: BXPC-3; experiment: Induction of apoptosis in human BXPC-3 cells assessed as accretion of lipid-like substances at 30 uM incubated for 24 hrs by SRS microspectroscopic analysis; assay type: functional, cell-based
[14] = tested on: BXPC-3; experiment: Induction of apoptosis in human BXPC-3 cells assessed as membrane blebbing at 30 uM incubated for 24 hrs by SRS microspectroscopic analysis; assay type: functional, cell-based
[15] = tested on: BXPC-3; experiment: Induction of apoptosis in human BXPC-3 cells assessed as increase in intensity of lipid-associated SRS bands at 30 uM incubated for 24 hrs by SRS microspectroscopic analysis; assay type: functional, cell-based
[16] = tested on: BXPC-3; experiment: Induction of mitochodrial fission in human BXPC-3 cells assessed as reduction in mitochondrial length at 30 uM incubated for 24 hrs by MitoTracker Red CMX ROS staining based confocal microscopic analysis relative to control; assay type: functional; parameters: scale not given: the % may be the effect or the level left
[17] = tested on: BXPC-3; experiment: Induction of apoptosis in human BXPC-3 cells assessed as increase in number of dead cells at 30 uM incubated for 24 hrs by EthD-1 staining based fluorescence microscopic analysis relative to control; assay type: functional
[18] = tested on: BXPC-3; experiment: Induction of apoptosis in human BXPC-3 cells assessed as decrease in intensity of protein-associated SRS bands at 30 uM incubated for 24 hrs by SRS microspectroscopic analysis; assay type: functional, cell-based
[19] = tested on: BXPC-3; experiment: Induction of apoptosis in human BXPC-3 cells assessed as increase in cleaved PARP level at 30 uM incubated for 24 hrs by Western blot analysis; assay type: functional, cell-based
[20] = tested on: BXPC-3; experiment: Induction of apoptosis in human BXPC-3 cells assessed as increase in cleaved PARP level at 10 uM incubated for 24 hrs by Western blot analysis; assay type: functional, cell-based
[21] = tested on: BXPC-3; experiment: Induction of apoptosis in human BXPC-3 cells assessed as increase in lipid level at 10 uM incubated for 24 hrs by SRS microspectroscopic analysis; assay type: functional, cell-based
[22] = tested on: BXPC-3; experiment: Induction of mitochodrial fission in human BXPC-3 cells assessed as reduction in mitochondrial length at 10 uM incubated for 24 hrs by MitoTracker Red CMX ROS staining based confocal microscopic analysis; assay type: functional, cell-based
[23] = tested on: BXPC-3; experiment: Induction of apoptosis in human BXPC-3 cells assessed as increase in cleaved caspase 3 level at 10 uM incubated for 24 hrs by Western blot analysis; assay type: functional, cell-based

logD [1]: 2.98
IC50 [2]: 27.1 µM
IC50 [3]: 26.3 µM
IC50 [4]: 24 µM
Compound: COc1ccc(O)c(C(=O)/C=C/c2cccc(OC)c2OC)c1

Compound: COc1ccc(OCC(O)CO)c(C(=O)/C=C/c2cccc(OC)c2OC)c1 (stereo not given)
Activity [5]: Active
Activity [6]: Active
Activity [7]: 217.4%
Activity [8]: Active
Activity [9]: Active
Activity [10]: Active
Activity [11]: 50%
logD [1]: 2.42
Activity [12]: 367.3%
Activity [13]: Active
Activity [14]: Active
IC50 [2]: 11.7 µM
Activity [15]: Active
Activity [16]: 16%
Activity [17]: 256.18%
IC50 [3]: 32.1 µM
Activity [18]: Active
IC50 [4]: 7.94 µM
Activity [19]: Active

IC50 [2]: 6.83 µM
IC50 [3]: 12.2 µM
IC50 [4]: 5.51 µM
Compound: Nc1ccn([C@@H]2O[C@H](CO)[C@@H](O)C2(F)F)c(=O)n1 [GEMCITABINE]
Activity [20]: Active
Activity [21]: Active
Activity [22]: Active
Activity [23]: Active
